Assay results from ChEMBL document CHEMBL1130687, “Synthesis and morphological reversion activity on srctsNRK cells of pyrimidinylpropanamide antibiotics, sparsomycin, sparoxomycin A1, A2, and their analogues” (1998).

Test system: NRK
Experiment: Compound was tested for its morphological reversion activity on srctsNRK cells
Type: functional
Settings: Rattus norvegicus, read-out: MEC

SMILES | minimal effective concentration [µM]
COCOC[C@@H](C[S+]([O-])CSC)NC(=O)/C=C/c1c(C)nc(O)nc1O (some centres not stated) | 60
CSC[S+]([O-])C[C@H](CO)NC(=O)/C=C/c1c(C)[nH]c(=O)[nH]c1=O (some centres not stated) | 6.5
CCSC[S+]([O-])C[C@H](CO)NC(=O)/C=C/c1c(C)nc(O)nc1O (some centres not stated) | 20
CCCCSC[S+]([O-])C[C@H](CO)NC(=O)/C=C/c1c(C)nc(O)nc1O (some centres not stated) | 60
Cc1nc(O)nc(O)c1/C=C/C(=O)N[C@@H](CO)C[S+]([O-])C[S+](C)[O-] (some centres not stated) | 530
CCC(C)SC[S+]([O-])C[C@H](CO)NC(=O)/C=C/c1c(C)nc(O)nc1O (some centres not stated) | 180
Cc1nc(O)nc(O)c1/C=C/C(=O)N[C@H](CO)C[S+]([O-])C[S+](C)[O-] (some centres not stated) | 530
